Consider ten molecules from patent US7968733B2, “Pyrrolidine analogue for preventing neurogenic pain and method for production thereof” (priority 2006, dated 2011).

In experiment [1] the test system is acromelic acid-induced allodynia. The experiment is described as follows: Evaluation of allodynia-inhibitory activity (intrathecal co-administration with acromelic acid). The following applies: for allodynia-inhibitory activity: intrathecal, 5 μl solution with 1×10^−15 gram of acromelic acid plus pyrrolidine derivative, ddY-mouse male, allodynia scored 0 to 2 every 5 minutes for 50 minutes, percent of control, FIGS. 1-3; for dose suppressing allodynia induction with equal potency, relative to the compounds of Comparative Examples 5 and 6: fraction of the doses of Comparative Examples 5 and 6, intrathecal with acromelic acid, ddY-mouse, FIG. 3. In kind it is in vivo, ddY-mouse. As for the experimental part:
In the evaluation, according to the method of Hylden & Wilcox (Hylden, J. L. K. and Wilcox, G. L., Intrathecal morphine in mice: a new technique, Eur. J. Pharmacol, 67 (1980) 313-316.), 5 μl of a solution containing 1×10^−15 gram of acromelic acid and a different dose of pyrrolidine derivative was administrated to ddY-mouse (male, weight 22±2 g) under an unanesthetized condition. One experimental group consisted of 6 mice, and a solution containing 1×10^−15 gram of acromelic acid (5 μl ) was administrated in control groups. After the compound was intrathecally administered, allodynia was assessed once every 5 minutes for 50 minutes by scoring the response in rank order from 0 to 2, and expressed as a percent of the values in control groups, similarly to the method of Yaksh & Harty et al. (Yaksh, T. L. and Harty, G. J., Pharmacology of the allodynia in rats evoked by high dose intrathecal morphine, J. Pharmacol. Exp. Ther., 244 (1988) 501-507.). Allodynic response was ranked as follows: 0, no response; 1, mild squeaking with attempts to move away from the stroking probe; 2, vigorous squeaking evoked by the stroking probe, biting at the probe or strong efforts to escape.

The subject of the next experiment is allodynia. The following applies: intrathecal administration in mice; Non-patent documents 1 and 4; cited from earlier work.

With `O=C(O)C[C@@H]1[C@@H](C(=O)O)NC[C@H]1Oc1ccc(C(=O)O)cc1` [Example 1, (2S,3R,4S)-3-carboxymethyl-4-(4-carboxyphenoxy)-pyrrolidine-2-carboxylic acid], in experiment [1], the allodynia-inhibitory activity result is reported as “strong allodynia-inhibitory activity”.

For `O=C(O)C[C@@H]1[C@@H](C(=O)O)NC[C@H]1Oc1ccccc1C(=O)O` [Example 5, (2S,3R,4S)-3-(carboxymethyl)-4-(2-carboxyphenoxy)-pyrrolidine-2-carboxylate], in experiment [1], the allodynia-inhibitory activity entry is listed as “strong allodynia-inhibitory activity”. As for `Cc1ccc(O[C@@H]2CN[C@H](C(=O)O)[C@H]2CC(=O)O)c(C(=O)O)c1` [Example 8, (2S,3R,4S)-3-carboxymethyl-4-(2-carboxy-4-methyl-phenoxy)pyrrolidine-2-carboxylate], in experiment [1], the “dose suppressing allodynia induction with equal potency, relative to the compounds of Comparative Examples 5 and 6” value is “approximately one-hundredth”; the allodynia-inhibitory activity result is “strong allodynia-inhibitory activity”. Regarding `O=C(O)c1ccc(O[C@@H]2CN[C@H](C(=O)O)C2)cc1` [Example 9, (2S,4S)-4-(4-carboxyphenoxy)pyrrolidine-2-carboxylate], in experiment [1], the allodynia-inhibitory activity entry is recorded as “strong allodynia-inhibitory activity”. Turning to `COc1ccc(S[C@H]2CN[C@H](C(=O)O)[C@H]2CC(=O)O)cc1` [Example 13, (2S,3R,4R)-3-(carboxymethyl)-4-(4-methoxyphenylthio)-pyrrolidine-2-carboxylate], the allodynia-inhibitory activity result in experiment [1] is recorded as “strong allodynia-inhibitory activity”. Turning to `Cc1ccc(S[C@H]2CN[C@H](C(=O)O)[C@H]2CC(=O)O)cc1` [Example 14, (2S,3R,4R)-3-(carboxymethyl)-4-(4-methylphenylthio)-pyrrolidine-2-carboxylate], in experiment [1], the “dose suppressing allodynia induction with equal potency, relative to the compounds of Comparative Examples 5 and 6” value is recorded as “approximately one-hundredth”; the allodynia-inhibitory activity result is “strong allodynia-inhibitory activity”. As to `O=C(O)C[C@H]1[C@@H](Sc2ccccc2)CN[C@@H]1C(=O)O` [Example 18, (2S,3R,4R)-3-carboxy-methyl-4-phenylthiopyrrolidine-2-carboxylate], the allodynia-inhibitory activity result in experiment [1] is on record as “strong allodynia-inhibitory activity”.

For the molecule `Cc1ccc(S[C@H]2CN[C@H](C(=O)O)C2)cc1` [Example 19, (2S,4R)-4-(4-methylphenylthio)pyrrolidine-2-carboxylate], in experiment [1], the “dose suppressing allodynia induction with equal potency, relative to the compounds of Comparative Examples 5 and 6” value was “approximately one-hundredth”; the allodynia-inhibitory activity entry is given as “strong allodynia-inhibitory activity”. In the case of `[N-]=[N+]=Nc1ccc(O[C@H]2CN[C@H](C(=O)O)[C@H]2CC(=O)O)c(I)c1` [proline analogue (a)], in the experiment on allodynia, the allodynia-inducing activity result is on record as “the same degree of allodynia-inducing activity as that of acromelic acids”. Regarding acromelic acids, the allodynia-inducing activity entry in the experiment on allodynia was “induce severe allodynia”.
